Tested on: HEK293T cells
Experiment: Flow cytometry (CFlow): delivery of FAM-labeled single-stranded PGY-sRNA-6 into HEK293T cells by different concentrations of single sphingosine derivative (Example 1)
Assay type: cell-based, human
Details: for delivery of single-stranded PGY-sRNA-6 into 293T cells (fluorescence shift compared to free uptake group): different concentrations: 3.75, 12.5, 37.5 μg single lipid, 0.1 nmol FAM-labeled sRNA, final 100 nM, 9 hours, flow cytometry; for Lipid delivery group (different concentrations of lipids) 3.75 μg/mL: single sphingosine derivative 3.75 μg/mL; for Lipid delivery group (different concentrations of lipids) 3.75 μg/mL / Lipid delivery group (different concentrations of lipids) 12.5 μg/mL / Lipid delivery group (different concentrations of lipids) 37.5 μg/mL: FAM-labeled PGY-ssRNA-6 100 nM, 293T cells, fluorescence shift by flow cytometry; for Lipid delivery group (different concentrations of lipids) 12.5 μg/mL: single sphingosine derivative 12.5 μg/mL; for Lipid delivery group (different concentrations of lipids) 37.5 μg/mL: single sphingosine derivative 37.5 μg/mL
Method: 2.1 5 μl of small RNA (Ribobio, 20 μM, as shown in Table 2) and 95 μL of DEPC (Sigma) treated water were added into a 1.5 ml EP tube and mixed well. Then a certain amount of single lipid or lipid composition in chloroform solution (as shown in Table 1) was added and fully mixed by sucking and blowing;
2.2 The system was fully mixed and was heated in a water bath at 90° C. for 15 minutes;
2.3 The system was taken out and cooled down to room temperature.
4.3 The human embryonic kidney cell line HEK293T and human monocyte THP-1 cells used in the experiment were cultured to logarithmic growth phase, and then plated into 12-well plates with a cell density of 6×10^5/1 mL medium/well. The 12-well plate (1 mL medium/well) was incubated overnight (12 h) at 37° C., followed by subsequent experiments.
4.4 The experiment groups were as follows: • 1) Naïve group: untreated cells. This group served as a blank control group. • 2) Free uptake group: […] of 5′-FAM labeled small RNA solution (storage concentration is 20 μM) was directly added. This group served as a negative control group; • 3) Lipid nucleic acid mixture treatment group: The mixture of the lipid prepared in step 2 and the 5′-FAM-labeled small RNA was added into the cells and mixed well. The final concentration of small RNA is 100 nM.
4.5 After co-incubation with cells for 6 h/9 h, the cells were washed three times with PBS. The cells were re-suspended with PBS (self-prepared). The flow cytometer Accuri® C6 instrument (purchased from BD, US) was used to detect the fluorescence intensity of the cells in the sample wells. Implementation method: the software CFlow Plus used in the flow cytometer Accuri® C6 instrument detection was opened, the instrument was washed with cleaning solution for 3 minutes, and then washed with double-distilled water for 5 minutes. The injection of blank group samples was started while setting the number of cells unlimited. The injection of Naïve group samples was stopped when the number of cells detected was 10000 events. The live cell group in the fluorescence spectrum (abscissa: FSC-A, ordinate: SSC-A) was circled as gate P1. With the number of cells set as limited, the detection was stopped when the number of cells in gate P1 reached 10000 events. The fluorescence shift value was obtained in the fluorescence spectrum (abscissa: fluorescence channel FLA-1, ordinate: SSC-A).
1) Conditions of the boiling method: to 100 μL FAM-labeled single-stranded PGY-sRNA-6 solution was added corresponding amount of lipid solution, and heated at 90° C. for 15 min;
2) Experimental conditions: the final concentration of small RNA was 100 nM. 9 hours after being added to the cells, the amount of single-stranded PGY-sRNA-6 that entered into the cells was compared by detecting the fluorescence shift using flow cytometry technology. For the detailed protocols, see “Flow cytometry technology (CFlow) determined the uptake amount of nucleic acid that is delivered into cells by lipid”. All experiments were performed in triplicates.

| SMILES | delivery of single-stranded PGY-sRNA-6 into 293T cells (fluorescence shift compared to free uptake group) | Lipid delivery group (different concentrations of lipids) 3.75 μg/mL | Lipid delivery group (different concentrations of lipids) 12.5 μg/mL | Lipid delivery group (different concentrations of lipids) 37.5 μg/mL |
| --- | --- | --- | --- | --- |
| CCCCCCCCCCCCCC[C@@H](O)[C@@H](O)[C@H](CO)NC(=O)CCCCC [So-67, N-[(1S,2S,3R)-2,3-dihydroxy-1-(hydroxymethyl)heptadecyl]-hexanamide] | deliver | 6.30% | 5.30% | 2.80% |
| CCCCCCCCCCCCCC=CC(O)C(COP(=O)(O)OCCN)NC(C)=O (stereo not shown) [So-60, N-Acetyl-Sphingosylphosphorylethanolamine] | deliver | 7.10% | 7.10% | 6.20% |
| CCCCCCCCCCCCCCCC(=O)N[C@@H](CO)[C@H](O)[C@H](O)CCCCCCCCCCCCCC [So-68, N-[(1S,2S,3R)-2,3-dihydroxy-1-(hydroxymethyl)heptadecyl]-hexadecanamide] | deliver | 4.80% | 3.80% | 3.90% |
| CCCCCCCCCCCCC/C=C/[C@@H](O)[C@H](CO)NC(=O)CCCCCCCCCCCCCC [So-64, N-[(1S,2R,3E)-2-hydroxy-1-(hydroxymethyl)-3-heptadecen-1-yl]-pentadecanamide] | deliver | 7.40% | 6.20% | 8.70% |
| CCCCCCCCCCCCCC[C@@H](O)[C@@H](N)COP(=O)(O)O [So-15, dihydro-D-erythro-Sphingosine-C17-1-phosphate] | deliver | 4.70% | 1.90% | 2.40% |
| CCCCCCCCCCCCCCCCCC(=O)N[C@@H](CO)[C@H](O)CCCCCCCCCCCCCCC [So-9, N-octadecanoyl-D-erythro-Dihydrosphingosine] | deliver | 3.30% | 2.60% | 2.70% |
| CCCCCCCCCCCCCCCC(=O)N[C@@H](CO)[C@H](O)CCCCCCCCCCCCCCC [So-10, N-hexadecanoyl-D-erythro-Dihydrosphingosine] | deliver | 2.10% | 3.40% | 2.50% |
| CCCCCCCCCCCCCCCCCC(=O)N[C@@H](CO)[C@H](O)[C@H](O)CCCCCCCCCCCCCC [So-69, N-[(1S,2S,3R)-2,3-dihydroxy-1-(hydroxymethyl)heptadecyl]-octadecanamide] | deliver | 4.60% | 3.80% | 3.30% |
| CCCCCCCCCCCCCCCCC(=O)N[C@@H](CO)[C@H](O)CCCCCCCCCCCCCCC [So-1, N-heptadecanoyl-D-erythro-Dihydrosphingosine] | deliver | 1.60% | 1.50% | 1.40% |
| CCCCCCCCCCCC/C=C/[C@@H](O)[C@@H](N)CO [So-53, D-erythro-Sphingosine C-17] | deliver | 0.20% | 0.30% | 6.70% |

— patent US11974969B2, “Artificially synthesized sphingosine derivative lipoid monomer and use of same for delivering nucleic acid” (INSTITUTE OF BASIC MEDICAL SCIENCES CHINESE ACADEMY OF …, priority 2018, dated 2024)
